Here are results for 1 molecule from ChEMBL document CHEMBL4715876 (J Med Chem, 2020).

Data set [1] can be described thus: Plasma concentration in CB.17 SCID mouse xenografted with TMD-8 cells at 3 mg/kg, po once daily for 19 days. The note with it: time 19 day. The format is ADME, organism-based.
Data set [2] is described as follows: Tmax in Sprague-Dawley rat at 3 mg/kg, po measured upto 24 hrs by LC-MS/MS analysis. The format is ADME, organism-based. To be noted: in vivo.
Data set [3] can be described thus: Drug uptake in CB.17 SCID mouse tumor xenografted with TMD-8 cells at 3 mg/kg, po once daily for 19 days. In kind it is ADME, organism-based, Neoplasm. To be noted: time 19 day, read-out: Drug uptake.
Data set [4] in a line: Oral bioavailability in BALB/C mouse at 30 mg/kg measured upto 24 hrs by LC-MS analysis. The format is ADME, organism-based. To be noted: in vivo.
Data set [5] in a line: Tmax in Beagle dog at 1 mg/kg, po measured upto 24 hrs by LC-MS/MS analysis. In kind it is ADME, organism-based, Canis lupus familiaris. The note with it: in vivo.
Data set [6] is described as follows: Tmax in Beagle dog at 1 mg/kg, iv measured upto 24 hrs by LC-MS/MS analysis. In kind it is ADME, organism-based, Canis lupus familiaris. The note with it: in vivo.
Data set [7] can be described thus: Cmax in Beagle dog at 1 mg/kg, po measured upto 24 hrs by LC-MS/MS analysis. The format is ADME, organism-based, Canis lupus familiaris. Further details: route oral, dose 1 mg/kg, time <=24. To be noted: in vivo.
The nature of data set [8]: Volume of distribution at steady state in Sprague-Dawley rat at 3 mg/kg, iv measured upto 24 hrs by LC-MS/MS analysis. In kind it is ADME, organism-based. The note with it: in vivo, read-out: Vdss.
The nature of data set [9]: Volume of distribution at steady state in BALB/C mouse at 10 mg/kg, iv measured upto 24 hrs by LC-MS analysis. In kind it is ADME, organism-based. The note with it: in vivo, read-out: Vdss.
Data set [10] is described as follows: Drug uptake in CB.17 SCID mouse tumor xenografted with OCI-LY10 cells at 3 mg/kg, po once daily for 24 days. In kind it is ADME, organism-based, Neoplasm. To be noted: time 24 day, read-out: Drug uptake.
The nature of data set [11]: Oral bioavailability in Beagle dog at 1 mg/kg measured upto 24 hrs by LC-MS/MS analysis. In kind it is ADME, organism-based, Canis lupus familiaris. The note with it: in vivo.
The nature of data set [12]: Plasma concentration in CB.17 SCID mouse xenografted with OCI-LY10 cells at 3 mg/kg, po once daily for 24 days. The format is ADME, organism-based. The note with it: time 24 day.
Data set [13] is described as follows: AUClast in BALB/C mouse at 10 mg/kg, iv measured upto 24 hrs by LC-MS analysis. The format is ADME, organism-based. Further details: route intravenous, dose 10 mg/kg, time <= 24. To be noted: in vivo.
Data set [14] is described as follows: Drug uptake in CB.17 SCID mouse tumor xenografted with SUDHL-6 cells assessed as effect on body weight at 5 mg/kg, po once daily for 15 days. The format is ADME, organism-based, Neoplasm. To be noted: time 15 day, read-out: Drug uptake.
Data set [15] in a line: Cmax in BALB/C mouse at 30 mg/kg,po measured upto 24 hrs by LC-MS analysis. In kind it is ADME, organism-based. Also noted: route oral, dose 30 mg/kg, time <= 24. To be noted: in vivo.
Data set [16] is described as follows: Cmax in Sprague-Dawley rat at 3 mg/kg, po measured upto 24 hrs by LC-MS/MS analysis. To be noted: in vivo. Further details: route oral, dose 3 mg/kg, time <=24. In kind it is ADME, organism-based.
The next data set in a line: in vivo. To be noted: BALB/C, mouse, po, 30 mg/kg.
A short description of data set [17]: Cmax in Sprague-Dawley rat at 3 mg/kg, iv measured upto 24 hrs by LC-MS/MS analysis. The note with it: in vivo. The format is ADME, organism-based. Also noted: route intravenous, dose 3 mg/kg, time <=24.
The nature of data set [18]: Tmax in Sprague-Dawley rat at 3 mg/kg, iv measured upto 24 hrs by LC-MS/MS analysis. In kind it is ADME, organism-based. To be noted: in vivo.
The nature of data set [19]: Plasma concentration in CB.17 SCID mouse tumor xenografted with SUDHL-6 cells assessed as effect on body weight at 5 mg/kg, po once daily for 15 days. The format is ADME, organism-based. The note with it: time 15 day.
Data set [20] is described as follows: Tmax in BALB/C mouse at 30 mg/kg, po measured upto 24 hrs by LC-MS analysis. In kind it is ADME, organism-based. The note with it: in vivo.

By Tmax is commonly meant the time at which the peak concentration occurs. In general, bioavailability refers to the share of a dose that reaches the circulation, judged against a reference dose that is usually intravenous. A word on the Cmax: it is the maximum level reached in the sampled fluid or tissue. For orientation: AUC(0-t) means the area under the concentration-time curve up to a stated or last time point. A higher AUC(0-t) goes with more exposure. For `CC[C@H](Nc1ncnc2[nH]cnc12)c1nc2cccc(F)c2c(=O)n1-c1ccccc1` [IDELALISIB], the concentration at 456 h in data set [1] was 20 nM; in data set [3] it was 140 nM. For the same molecule, the Tmax in data set [2] was found to be 180 min; in data set [5] it was 60 min; in [6], 4.8 min; in data set [18], 4.8 min; in [20], 15 min. Besides, the bioavailability in data set [4] worked out at 37.6%; in data set [11], 48%. The Cmax was found to be 500 nM in [7], 6980 nM in data set [15], 310 nM in data set [16] and 3460 nM in [17]. The Vd came to 2.49 L/kg in data set [8] and 0.73 L/kg in [9]. Besides, the concentration at 576 h in data set [10] amounted to 150 nM; in data set [12] it was 40 nM. For the same molecule, the AUC(0-t) at 24 h was found to be 7.43 µM·h in data set [13] and 9.25 µM·h in the data set “in vivo”. The concentration at 360 h in data set [14] worked out at 80 nM; in data set [19], 30 nM.
